In US7414066B2, “Amide compounds and medications containing the same technical field” (Kowa Company Ltd., priority 1999, dated 2008):

SMILES | melting point [°C]
CCSc1cc(C)nc(SCC)c1NC(=O)CCCCSc1nc2ccccc2s1 [Compound No. 824, 5-(benzothiazol-2-ylthio)-N-[2,4-bis(ethylthio)-6-methyl-3-pyridyl]pentanamide] | 102 to 104
CCSc1cc(C)nc(SCC)c1NC(=O)CCCCCCSc1nc2ccccc2s1 [Compound No. 826, 7-(benzothiazol-2-ylthio)-N-[2,4-bis(ethylthio)-6-methyl-3-pyridyl]heptanamide] | 114 to 116
CCSc1cc(C)nc(SCC)c1NC(=O)CCCCCCCSc1nc2ccccc2s1 [Compound No. 827, 8-(benzothiazol-2-ylthio)-N-[2,4-bis(ethylthio)-6-methyl-3-pyridyl]octanamide] | 94 to 96
CCSc1cc(C)nc(SCC)c1NC(=O)CCCSc1nc2ccccc2[nH]1 [Compound No. 833, 4-(benzimidazol-2-ylthio)-N-[2,4-bis(ethylthio)-6-methyl-3-pyridyl]butanamide] | 160 to 161
CCSc1cc(C)nc(SCC)c1NC(=O)CCCCSc1nc2ccccc2[nH]1 [Compound No. 834, 5-(benzimidazol-2-ylthio)-N-[2,4-bis(ethylthio)-6-methyl-3-pyridyl]pentanamide] | 163 to 165
CCSc1cc(C)nc(SCC)c1NC(=O)CCCCCCSc1nc2ccccc2[nH]1 [Compound No. 836, 7-(benzimidazol-2-ylthio)-N-[2,4-bis(ethylthio)-6-methyl-3-pyridyl]heptanamide] | 151 to 156
CCSc1cc(C)nc(SCC)c1NC(=O)CCCCCCCSc1nc2ccccc2[nH]1 [Compound No. 837, 8-(benzoimidazol-2-ylthio)-N-[2,4-bis(ethylthio)-6-methyl-3-pyridyl]octanamide] | 166 to 168
Cc1cc(SC(C)C)c(NC(=O)CCCCSc2nc3ccccc3o2)c(SC(C)C)n1 [Compound No. 844, 5-(benzoxazol-2-ylthio)-N-[2,4-bis(isopropylthio)-6-methyl-3-pyridyl]pentanamide] | 129 to 130
Cc1cc(SC(C)C)c(NC(=O)CCCCCCSc2nc3ccccc3o2)c(SC(C)C)n1 [Compound No. 846, 7-(benzoxazol-2-ylthio)-N-[2,4-bis(isopropylthio)-6-methyl-3-pyridyl]heptanamide] | 76 to 78
Cc1cc(SC(C)C)c(NC(=O)CSc2nc3ccccc3s2)c(SC(C)C)n1 [Compound No. 851, 2-(benzothiazol-2-ylthio)-N-[2,4-bis(isopropylthio)-6-methyl-3-pyridyl]acetamide] | 117 to 118
Cc1cc(SC(C)C)c(NC(=O)CCCSc2nc3ccccc3s2)c(SC(C)C)n1 [Compound No. 853, 4-(benzothiazol-2-ylthio)-N-[2,4-bis(isopropylthio)-6-methyl-3-pyridyl]butanamide] | 116 to 117
Cc1cc(SC(C)C)c(NC(=O)CCCCSc2nc3ccccc3s2)c(SC(C)C)n1 [Compound No. 854, 5-(benzothiazol-2-ylthio)-N-[2,4-bis(isopropylthio)-6-methyl-3-pyridyl]pentanamide] | 107 to 109
Cc1cc(SC(C)C)c(NC(=O)CCCCCSc2nc3ccccc3s2)c(SC(C)C)n1 [Compound No. 855, 6-(benzothiazol-2-ylthio)-N-[2,4-bis(isopropylthio)-6-methyl-3-pyridyl]hexanamide] | 84 to 86
Cc1cc(SC(C)C)c(NC(=O)CCCCCCSc2nc3ccccc3s2)c(SC(C)C)n1 [Compound No. 856, 7-(benzothiazol-2-ylthio)-N-[2,4-bis(isopropylthio)-6-methyl-3-pyridyl]heptanamide] | 74 to 76
Cc1cc(SC(C)C)c(NC(=O)CCCCCCCSc2nc3ccccc3s2)c(SC(C)C)n1 [Compound No. 857, 8-(benzothiazol-2-ylthio)-N-[2,4-bis(isopropylthio)-6-methyl-3-pyridyl]octanamide] | 107 to 108
Cc1cc(SC(C)C)c(NC(=O)CSc2nc3ccccc3[nH]2)c(SC(C)C)n1 [Compound No. 861, 2-(benzimidazol-2-ylthio)-N-[2,4-bis(isopropylthio)-6-methyl-3-pyridyl]acetamide] | 223 to 224
Cc1cc(SC(C)C)c(NC(=O)CCCCSc2nc3ccccc3[nH]2)c(SC(C)C)n1 [Compound No. 864, 5-(benzimidazol-2-ylthio)-N-[2,4-bis(isopropylthio)-6-methyl-3-pyridyl]pentanamide] | 175 to 176
Cc1cc(SC(C)C)c(NC(=O)CCCCCSc2nc3ccccc3[nH]2)c(SC(C)C)n1 [Compound No. 865, 6-(benzimidazol-2-ylthio)-N-[2,4-bis(isopropylthio)-6-methyl-3-pyridyl]hexanamide] | 175 to 176
Cc1cc(SC(C)C)c(NC(=O)CCCCCCSc2nc3ccccc3[nH]2)c(SC(C)C)n1 [Compound No. 866, 7-(benzoimidazol-2-ylthio)-N-[2,4-bis(isopropylthio)-6-methyl-3-pyridyl]heptanamide] | 118 to 121

SMILES | melting point [°C]
Cc1cc(SC(C)C)c(NC(=O)CCCCCCCCSc2nc3ccccc3[nH]2)c(SC(C)C)n1 [Compound No. 868, 9-(benzimidazol-2-ylthio)-N-[2,4-bis(isopropylthio)-6-methyl-3-pyridyl]nonanamide] | 112 to 114
CSc1nc(C)nc(SC)c1NC(=O)CCCCCSc1nc2ccccc2o1 [Compound No. 1145, 6-(benzoxazole-2-ylthio)-N-[2-methyl-4,6-bis(methylthio)-5-pyrimidyl)hexanamide] | 148 to 151
CSc1cc(C)nc(SC)c1NC(=O)CCCCCSc1nc2ncccc2o1 [Compound No. 1237, 6-(oxazolo[4,5-b]pyridin-2-ylthio)-N-[2,4-bis(methylthio)-6-methyl-3-pyridyl]hexanamide] | 132 to 133
COC(=O)c1cccc2nc(SCCCCCC(=O)Nc3c(SC)cc(C)nc3SC)oc12 [Compound No. 1238, 6-(7-methoxycarbonylbenzoxazol-2-ylthio)-N-[2,4-bis(methylthio)-6-methyl-3-pyridyl]hexanamide] | 141 to 142
COC(=O)c1cccc2nc(SCCCCCCCCC(=O)Nc3c(SC)cc(C)nc3SC)oc12 [Compound No. 1240, 9-(7-methoxycarbonylbenzoxazol-2-ylthio)-N-[2,4-bis(methylthio)-6-methyl-3-pyridyl]nonanamide] | 126 to 128
CSc1cc(C)nc(SC)c1NC(=O)CSc1nc2cccc(C(F)(F)F)c2o1 [Compound No. 1247, 2-(7-trifluoromethylbenzoxazol-2-ylthio)-N-[2,4-bis(methylthio)-6-methyl-3-pyridyl]acetamide] | 207 to 209
CSc1cc(C)nc(SC)c1NC(=O)CCCCSc1nc2cccc(C(F)(F)F)c2o1 [Compound No. 1250, 5-(7-trifluoromethylbenzoxazol-2-ylthio)-N-[2,4-bis(methylthio)-6-methyl-3-pyridyl]pentanamide] | 179 to 180
CSc1cc(C)nc(SC)c1NC(=O)CCCCCCSc1nc2cccc(C(F)(F)F)c2o1 [Compound No. 1252, 7-(7-trifluoromethylbenzoxazol-2-ylthio)-N-[2,4-bis(methylthio)-6-methyl-3-pyridyl]heptanamide] | 129 to 131
CSc1cc(C)nc(SC)c1NC(=O)CCCCCCCSc1nc2cccc(C(F)(F)F)c2o1 [Compound No. 1253, 8-(7-trifluoromethylbenzoxazol-2-ylthio)-N-[2,4-bis(methylthio)-6-methyl-3-pyridyl]octanamide] | 115 to 116
CSc1cc(C)nc(SC)c1NC(=O)CCCCSc1nc2c(C)c(Cl)cc(C(C)C)c2o1 [Compound No. 1260, 5-(5-chloro-7-isopropyl-4-methylbenzoxazol-2-ylthio)-N-[2,4-bis(methylthio)-6-methyl-3-pyridyl]pentanamide] | 155 to 156
CSc1cc(C)nc(SC)c1NC(=O)CCCCCCSc1nc2c(C)c(Cl)cc(C(C)C)c2o1 [Compound No. 1262, 7-(5-chloro-7-isopropyl-4-methylbenzoxazol-2-ylthio)-N-[2,4-bis(methylthio)-6-methyl-3-pyridyl]heptanamide] | 129 to 131
CCSc1cc(C)nc(SCC)c1NC(=O)CSc1nc2cccc(C(F)(F)F)c2o1 [Compound No. 1267, 2-(7-trifluoromethylbenzoxazol-2-ylthio)-N-[2,4-bis(ethylthio)-6-methyl-3-pyridyl]acetamide] | 182 to 183
CCSc1cc(C)nc(SCC)c1NC(=O)CCCSc1nc2cccc(C(F)(F)F)c2o1 [Compound No. 1269, 4-(7-trifluoromethylbenzoxazol-2-ylthio)-N-[2,4-bis(ethylthio)-6-methyl-3-pyridyl]butanamide] | 148 to 150
CCSc1cc(C)nc(SCC)c1NC(=O)CCCCSc1nc2cccc(C(F)(F)F)c2o1 [Compound No. 1270, 5-(7-trifluoromethylbenzoxazol-2-ylthio)-N-[2,4-bis(ethylthio)-6-methyl-3-pyridyl]pentanamide] | 155 to 156
CCSc1cc(C)nc(SCC)c1NC(=O)CCCCCCSc1nc2cccc(C(F)(F)F)c2o1 [Compound No. 1272, 7-(7-trifluoromethylbenzoxazol-2-ylthio)-N-[2,4-bis(ethylthio)-6-methyl-3-pyridyl]heptanamide] | 127 to 128
CCSc1cc(C)nc(SCC)c1NC(=O)CCCCCCCSc1nc2cccc(C(F)(F)F)c2o1 [Compound No. 1273, 8-(7-trifluoromethylbenzoxazol-2-ylthio)-N-[2,4-bis(ethylthio)-6-methyl-3-pyridyl]octanamide] | 99 to 100
CCSc1cc(C)nc(SCC)c1NC(=O)CCCCCCCCSc1nc2cccc(C(F)(F)F)c2o1 [Compound No. 1274, 9-(7-trifluoromethylbenzoxazol-2-ylthio)-N-[2,4-bis(ethylthio)-6-methyl-3-pyridyl]nonanamide] | 115 to 116
CCSc1cc(C)nc(SCC)c1NC(=O)CCCCSc1nc2c(C)c(Cl)cc(C(C)C)c2o1 [Compound No. 1280, 5-(5-chloro-7-isopropyl-4-methylbenzoxazol-2-ylthio)-N-[2,4-bis(ethylthio)-6-methyl-3-pyridyl]pentanamide] | 141 to 142
